Results on 48 compounds are retold here after patent US20050239806A1, “Pyrrolopyrimidine derivatives and analogs and their use in the treatment and prevention of diseases” (Ambit Biosciences Corporation, priority 2004, published 2005).

Test [1] deals with T1, human EGFR (wildtype), EGFR(DKIN) (Homo sapiens, UniProt P00533).
T1 construct: Kd for EGFR(DKIN); made in house
Description: Binding of wildtype-EGFR (T7 phage-displayed kinase competition binding). An excerpt:
Methods for measuring binding affinities for interactions between small molecules and kinases including FLT3, c-KIT, ABL([…]) [a.k.a. ABL([…])], VEGFR-2 (a.k.a. KDR), and EGFR are described in detail in U.S. application Ser. No. 10/873,835, which is incorporated by reference herein in its entirety. The components of the assays include human kinases expressed as fusions to T7 bacteriophage particles and immobilized ligands that bind to the ATP site of the kinases. […] If the test compound binds the kinase it competes with the immobilized ligand and prevents binding to the solid support. […] The results are read out by quantitating the amount of fusion protein bound to the solid support, which is accomplished by either traditional phage plaque assays or by quantitative PCR (qPCR) using the phage genome as a template. […] The concentration of test molecule that reduces the number of phage bound to the solid support by 50% is equal to the Kd for the interaction between the kinase and the test molecule. Typically, data are collected for twelve concentrations of test compound and, the resultant binding curve is fit to a non-cooperative binding isotherm to calculate Kd. Described in the exemplary assays below is data from binding with varying kinases. […] The term “ND” represents non-determined values. […] The Kd for the interaction between the soluble compound (competitor) molecule and EGFR is equal to the concentration of soluble competitor molecule that causes a 50% reduction in the number of phage recovered in the eluate compared to a control sample lacking soluble competitor.

In test [2] the target is T2, EGFR (tyrosine 1173 phosphorylation) in Lung Cancer Cell Line A459 (Homo sapiens, UniProt P00533).
T2 construct: endogenous in cells
T2 sequence (P00533 25-1210): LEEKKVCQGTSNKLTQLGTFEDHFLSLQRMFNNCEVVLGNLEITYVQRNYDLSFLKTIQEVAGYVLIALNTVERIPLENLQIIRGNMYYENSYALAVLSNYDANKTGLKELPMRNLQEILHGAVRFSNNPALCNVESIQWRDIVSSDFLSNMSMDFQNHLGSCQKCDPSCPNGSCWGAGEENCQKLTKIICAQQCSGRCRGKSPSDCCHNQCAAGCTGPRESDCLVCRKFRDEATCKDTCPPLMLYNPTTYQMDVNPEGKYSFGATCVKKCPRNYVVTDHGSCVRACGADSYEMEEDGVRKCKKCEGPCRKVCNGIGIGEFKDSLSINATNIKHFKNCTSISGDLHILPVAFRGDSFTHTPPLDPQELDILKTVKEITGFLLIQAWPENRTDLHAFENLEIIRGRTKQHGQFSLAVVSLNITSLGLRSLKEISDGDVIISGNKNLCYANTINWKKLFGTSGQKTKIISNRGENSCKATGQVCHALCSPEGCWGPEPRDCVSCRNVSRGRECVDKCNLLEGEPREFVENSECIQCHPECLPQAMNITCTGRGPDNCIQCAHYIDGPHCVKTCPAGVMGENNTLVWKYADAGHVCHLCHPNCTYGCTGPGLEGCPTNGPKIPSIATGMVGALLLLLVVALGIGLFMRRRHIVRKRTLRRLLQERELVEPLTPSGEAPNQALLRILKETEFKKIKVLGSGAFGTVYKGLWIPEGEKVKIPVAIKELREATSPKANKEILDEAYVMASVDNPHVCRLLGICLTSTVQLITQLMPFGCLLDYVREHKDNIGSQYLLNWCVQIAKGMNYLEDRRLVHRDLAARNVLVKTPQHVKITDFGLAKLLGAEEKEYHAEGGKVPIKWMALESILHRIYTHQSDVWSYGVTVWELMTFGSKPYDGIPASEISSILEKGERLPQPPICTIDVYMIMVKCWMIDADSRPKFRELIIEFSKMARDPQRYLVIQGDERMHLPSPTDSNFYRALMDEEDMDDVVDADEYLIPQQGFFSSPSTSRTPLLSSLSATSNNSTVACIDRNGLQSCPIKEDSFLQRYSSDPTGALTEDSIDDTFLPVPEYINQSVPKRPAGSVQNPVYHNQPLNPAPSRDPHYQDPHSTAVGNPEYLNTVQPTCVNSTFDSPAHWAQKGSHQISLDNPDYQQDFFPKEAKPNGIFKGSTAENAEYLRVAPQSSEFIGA
As to the kind of experiment: EGFR Autophosphorylation Inhibition Assay in Lung Cancer Cell Line A459. In kind it is cell-based. Particulars: EGF-induced phosphorylation of tyrosine 1173. How it is done:
(§1) Tyrosine 1173 is a major autophosphorylation site resulting from activation of EGFR by epidermal growth factor (EGF). To determine the capacity of a compound to inhibit this phosphorylation activity of EGFR upon itself, the following methodology was used: 4×10^4 A431 cells/well in a 96-well culture plate or 3.6×10^5 A549 cells/well in a 24-well culture plate were cultured overnight at 37° C. in 5% CO2 in low serum culture medium (DMEM supplemented with 0.5% fetal calf serum, 4.500 mg/L glucose and 100 units/ml penicillin-streptomycin). After 16 hours, the cells were pre-incubated in eight serial 3-fold dilutions of test compound (3.3 μM-0.0017 μM) in addition to vehicle control (final concentration on DMSO vehicle was 1%) for two hours. Cells were stimulated by the addition of 5 ng/ml of EGF for five minutes. Cells were then washed with cold phosphate buffered saline (PBS), and incubated for 30 minutes at 4° C. in lysis buffer. Subsequently, the samples were centrifuged at 6000× RCF for 15 minutes, and the level of phosphorylation of EGFR tyrosine 1173 was measured using a sandwich enzyme-linked immunosorbent assay following the manufacturer's recommended protocols (Biosource, Camarillo, Calif.). Total EGFR levels were also measured in the same manner to control for protein level differences. The reported values are those concentrations of compound required to inhibit EGF-induced phosphorylation of tyrosine 1173 by 50%.

Test [3] deals with T3, EGFR (tyrosine 1173 phosphorylation) in A431 cells (Homo sapiens, UniProt P00533).
T3 construct: endogenous in cells; host or cells: A431
T3 sequence (P00533 25-1210): as above
Description: EGFR Autophosphorylation Inhibition Assay in Epidermoid Carcinoma Cell Line A431. It is filed as cell-based. Particulars: EGF-induced phosphorylation of tyrosine 1173. How it is done:
as §1

T1 sequence (P00533 712-979 limits assumed): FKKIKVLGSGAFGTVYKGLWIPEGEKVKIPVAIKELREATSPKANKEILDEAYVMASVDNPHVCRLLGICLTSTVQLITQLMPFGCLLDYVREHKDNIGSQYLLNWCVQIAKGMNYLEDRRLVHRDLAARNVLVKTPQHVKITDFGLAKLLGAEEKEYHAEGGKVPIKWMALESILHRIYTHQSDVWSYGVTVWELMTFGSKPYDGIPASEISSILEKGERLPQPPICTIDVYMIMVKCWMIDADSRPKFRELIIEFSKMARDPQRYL

`COc1ccc(-c2cc3c(OCc4ccccc4)ncnc3[nH]2)cc1` [Compound C4] yielded a Kd in test [1] of 100 to 1000 nM.
The compound `Clc1cccc(Sc2ncnc3c2[nH]c2ccccc23)c1` [Compound K10] registered a Kd in test [1] of less than 100 nM. For the same compound, the IC50 in test [2] and in test [3] was 100 to 1000 nM in each case.
The compound `Brc1cccc(Sc2ncnc3c2[nH]c2ccccc23)c1` [Compound K8] gave a Kd in test [1] of less than 100 nM. Besides, the IC50 in test [3] was 100 to 1000 nM.
Compound `Oc1ccc(-c2cc3c(SCCc4ccccc4)ncnc3[nH]2)cc1` [Compound L1, 4-(4-Phenethylsulfanyl-7H-pyrrolo[2,3-d]pyrimidin-6-yl)-phenol] showed a Kd in test [1] of 1000 to 10000 nM.
`COc1ccc(-c2cc3c(Sc4cccc(Cl)c4)ncnc3[nH]2)cc1` [Compound J7] came in with a Kd in test [1] of less than 100 nM. Also, the IC50 in test [2] and in test [3] was 1000 to 10000 nM in each case.
On to `COc1ccc(-c2cc3c(Sc4ccc(F)cc4)ncnc3[nH]2)cc1` [Compound J13], for which the Kd in test [1] is less than 100 nM. This compound registered an IC50 in test [3] of 1000 to 10000 nM.
`COc1cccc(-c2cc3c(Sc4ccccc4Cl)ncnc3[nH]2)c1` [Compound J19] returned a Kd in test [1] of less than 100 nM. For the same compound, the IC50 in test [2] and in test [3] was 1000 to 10000 nM throughout.
As to `COc1ccc(-c2cc3c(OCc4cccc(C)c4)ncnc3[nH]2)cc1` [Compound C3], in test [1], the equilibrium dissociation constant (Kd) was more than 10000 nM.
The compound `COc1cccc(-c2cc3c(Oc4cccc(Br)c4)ncnc3[nH]2)c1` [Compound D19] showed a Kd in test [1] of less than 100 nM. Further, the IC50 in test [2] lay in the range of 1000 to 10000 nM; in test [3], 100 to 1000 nM.
Take `COc1ccc(-c2cc3c(Sc4ccc(Cl)c(Cl)c4)ncnc3[nH]2)cc1` [Compound J3]: the Kd in test [1] is 100 to 1000 nM.
Take `COc1ccc(-c2cc3c(Oc4cccc(Br)c4)ncnc3[nH]2)cc1` [Compound D3]: in test [1], the Kd lay within 100 to 1000 nM.
With `COc1cccc(-c2cc3c(Sc4cccc(Cl)c4)ncnc3[nH]2)c1` [Compound J24], the Kd in test [1] is less than 100 nM. For the same compound, the IC50 in test [2] and in test [3] was 100 to 1000 nM in each case.
`Cc1ccc(Sc2ncnc3[nH]c(-c4ccc(O)cc4)cc23)cc1` [Compound L9] registered a Kd in test [1] of less than 100 nM. Moreover, the IC50 in test [2] is 1000 to 10000 nM; in test [3], 100 to 1000 nM.
For the compound `Oc1ccc(-c2cc3c(Oc4cc(Cl)cc(Cl)c4)ncnc3[nH]2)cc1` [Compound E1, 4-[4-(3,5-Dichloro-phenoxy)-7H-pyrrolo[2,3-d]pyrimidin-6-yl]-phenol], the Kd in test [1] lay within 100 to 1000 nM. In addition, the half-maximal inhibitory concentration (IC50) in test [3] is 100 to 1000 nM.
As for `c1ccc(Sc2ncnc3c2[nH]c2ccccc23)cc1` [Compound K17], the Kd in test [1] is less than 100 nM.
Still for that read-out and setting: next, `Cc1cc(C)cc(Sc2ncnc3[nH]c(-c4ccc(O)cc4)cc23)c1` [Compound J18]: 100 to 1000 nM.
For `Cc1ccc(Sc2ncnc3c2[nH]c2ccccc23)cc1` [Compound K15], in test [1], the dissociation constant (Kd) is less than 100 nM. In test [3], this compound returned an IC50 of 100 to 1000 nM.
Regarding `Clc1ccc(Sc2ncnc3c2[nH]c2ccccc23)cc1` [Compound K13], the Kd in test [1] was less than 100 nM. In test [3], this compound gave an IC50 of 100 to 1000 nM.
In turn, `Oc1ccc(-c2cc3c(Sc4ccc(Cl)cc4)ncnc3[nH]2)cc1` [Compound L7] returned a Kd in test [1] of less than 100 nM. For the same compound, the results for the IC50 in test [2] and in test [3] were 1000 to 10000 nM and 100 to 1000 nM, respectively.
Take `COc1ccc(-c2cc3c(Sc4ccccc4)ncnc3[nH]2)cc1` [Compound J16]: the Kd in test [1] lay within 100 to 1000 nM.
In the case of `COc1cccc(-c2cc3c(Sc4cccc(F)c4)ncnc3[nH]2)c1` [Compound J25], the Kd in test [1] was less than 100 nM. In addition, the results for the IC50 in test [2] and in test [3] were 1000 to 10000 nM and 100 to 1000 nM, respectively.
On to `COc1cccc(Sc2ncnc3[nH]c(-c4cccc(OC)c4)cc23)c1` [Compound J26], for which, in test [1], the Kd is 100 to 1000 nM.
In test [1], `COc1ccc(-c2cc3c(Sc4cccc(OC)c4)ncnc3[nH]2)cc1` [Compound J9] had a Kd of 100 to 1000 nM.
In test [1], `COc1ccc(-c2cc3c(Sc4cccc(C)c4)ncnc3[nH]2)cc1` [Compound J10] displayed a Kd of 100 to 1000 nM.
Regarding `COc1cccc(-c2cc3c(Sc4cccc(C(F)(F)F)c4)ncnc3[nH]2)c1` [Compound J28], the dissociation constant (Kd) in test [1] was less than 100 nM. Further, the IC50 in test [3] lay within 1000 to 10000 nM.
Regarding `COc1ccc(-c2cc3c(Oc4cccc(Cl)c4)ncnc3[nH]2)cc1` [Compound D5], the Kd in test [1] was less than 100 nM. The compound also showed an IC50 in test [3] of 100 to 1000 nM.
Regarding `COc1ccc(-c2cc3c(Oc4cccc(C)c4)ncnc3[nH]2)cc1` [Compound D8], in test [1], the Kd is less than 100 nM.
On to `COc1cccc(-c2cc3c(Sc4ccc(F)cc4)ncnc3[nH]2)c1` [Compound J30], for which, in test [1], the Kd was less than 100 nM. Besides, the IC50 in test [2] and in test [3] was 1000 to 10000 nM throughout.
In the case of `COc1cccc(-c2cc3c(Sc4ccc(C)cc4)ncnc3[nH]2)c1` [Compound J31], the Kd in test [1] is less than 100 nM. Besides, the half-inhibitory concentration (IC50) was more than 10000 nM in test [2] and 1000 to 10000 nM in test [3].
In test [1], `Cc1ccc(-c2cc3c(Sc4cccc(F)c4)ncnc3[nH]2)cc1` [Compound J17] registered a Kd of 100 to 1000 nM.
For `COc1cccc(-c2cc3c(Sc4cc(C)cc(C)c4)ncnc3[nH]2)c1` [Compound J22], in test [1], the Kd was 100 to 1000 nM.
In turn, `COc1cccc(-c2cc3c(Sc4cc(Cl)cc(Cl)c4)ncnc3[nH]2)c1` [Compound J21] returned a Kd in test [1] of more than 10000 nM.
In turn, `Oc1cccc(Sc2ncnc3oc(-c4ccccc4)c(-c4ccccc4)c23)c1` [Compound N4] registered a Kd in test [1] of 100 to 1000 nM.
In test [1], `COc1cccc(-c2cc3c(Sc4cccc(C)c4)ncnc3[nH]2)c1` [Compound J27] showed a Kd of 100 to 1000 nM. Also, the figures for the IC50 in test [2] and in test [3] were 1000 to 10000 nM and 100 to 1000 nM, respectively.
Take `Cc1cc(C)cc(Oc2ncnc3[nH]c(-c4ccc(O)cc4)cc23)c1` [Compound E2]: the Kd in test [1] was less than 100 nM.
In test [1], `COc1cccc(-c2cc3c(Oc4cc(C)cc(C)c4)ncnc3[nH]2)c1` [Compound D18] came in with a Kd of 100 to 1000 nM.
Regarding `COc1cccc(-c2cc3c(Oc4cccc(C(F)(F)F)c4)ncnc3[nH]2)c1` [Compound D21], the Kd in test [1] was 100 to 1000 nM.
Regarding `Clc1ccc(Sc2ncnc3[nH]ccc23)cc1Cl` [Compound F3], in test [1], the Kd lay within 100 to 1000 nM.
In test [1], `COc1cccc(Oc2ncnc3[nH]c(-c4ccc(O)cc4)cc23)c1` [Compound E4] gave a Kd of 100 to 1000 nM.
With `COc1ccc(-c2cc3c(Sc4cccc(C(F)(F)F)c4)ncnc3[nH]2)cc1` [Compound J11], in test [1], the Kd was 100 to 1000 nM.
Still for that read-out and setting: to `COc1cccc(Sc2ncnc3[nH]c(-c4ccc(O)cc4)cc23)c1` [Compound L4] belongs 100 to 1000 nM; to `COc1ccc(Sc2ncnc3[nH]c(-c4ccc(O)cc4)cc23)cc1` [Compound L11], 100 to 1000 nM; to `Cc1cccc(Sc2ncnc3c2[nH]c2ccccc23)c1` [Compound K12], 100 to 1000 nM.
`COc1cccc(Sc2ncnc3oc(-c4ccccc4)c(-c4ccccc4)c23)c1` [Compound N12] returned a Kd in test [1] of 100 to 1000 nM.
On to `CCc1ccccc1Sc1ncnc2[nH]c(-c3cccc(OC)c3)cc12` [Compound J20], for which, in test [1], the Kd was less than 100 nM. This compound also came in with an IC50 in test [3] of 1000 to 10000 nM.
In turn, `COc1cccc(-c2cc3c(Sc4ccc(C(C)(C)C)cc4)ncnc3[nH]2)c1` [Compound J32] had a Kd in test [1] of 1000 to 10000 nM.
On to `COc1ccc(-c2cc3c(Sc4ccc(F)c(Cl)c4)ncnc3[nH]2)cc1` [Compound J37], for which, in test [1], the Kd is less than 100 nM. Moreover, the IC50 in test [3] was 100 to 1000 nM.
The compound `COc1cccc(-c2cc3c(Oc4cccc(F)c4)ncnc3[nH]2)c1` [Compound D20] displayed a Kd in test [1] of 100 to 1000 nM.

As usually defined, the Kd is the equilibrium constant for the complex coming apart. Low values mean higher affinity, high ones lower affinity. A word on the IC50: it is the concentration that gives 50% inhibition. Low readings indicate greater potency, high ones weaker potency.
